Read-outs that look alike come from different tables or passages of the source. Where a SMILES comes first, the peptide text is derived from it. Bridges are numbered along the chain shown (N, C = ends). [ ]: non-standard residue; d: D form. The star is where a group is joined. hPhe(3,5-F2-4-CF3) = N[C@@H](CCc1cc(F)c(C(F)(F)F)c(F)c1)C(=O)O; hPhe(3-Cl-4-CF3) = N[C@@H](CCc1ccc(C(F)(F)F)c(Cl)c1)C(=O)O; NPrPhe(4-CF3) = CCCN[C@@H](Cc1ccc(C(F)(F)F)cc1)C(=O)O; NPrPhe(4-Me) = CCCN[C@@H](Cc1ccc(C)cc1)C(=O)O; NMeGly(cPent) = CN[C@H](C(=O)O)C1CCCC1; Pro(4,4-Me2) = CC1(C)CN[C@H](C(=O)O)C1; Hyp = O=C(O)[C@@H]1C[C@@H](O)CN1; NMeD = CN[C@@H](CC(=O)O)C(=O)O; NMeL = CN[C@@H](CC(C)C)C(=O)O; αMeS = C[C@](N)(CO)C(=O)O; Morpholide = C1CN(*)CCO1; NMeA = CN[C@@H](C)C(=O)O; Ac5c = NC1(C(=O)O)CCCC1; Aze = O=C(O)[C@@H]1CCN1; Sar = CNCC(=O)O; tBu = CC(C)(C)*
Columns and labels:
[1] = target: GDP-bound HRAS wild-type protein (Homo sapiens, UniProt P01112); assay: Binding to HRAS by surface plasmon resonance (SPR), Single Cycle Kinetics; settings: SPR, GDP-bound HRAS wild-type protein vs GDP-bound KRAS wild-type protein
Sequence of GDP-bound HRAS wild-type protein (P01112 whole entry): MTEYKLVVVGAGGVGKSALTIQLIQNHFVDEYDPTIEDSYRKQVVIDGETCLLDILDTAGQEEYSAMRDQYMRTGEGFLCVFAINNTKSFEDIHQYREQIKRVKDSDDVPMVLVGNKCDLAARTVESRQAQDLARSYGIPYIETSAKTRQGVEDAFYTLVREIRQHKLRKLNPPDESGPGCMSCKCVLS

[2] = target: GDP-bound KRAS wild-type protein (Homo sapiens, UniProt P01116); assay: Binding to KRAS by surface plasmon resonance (SPR), Single Cycle Kinetics; settings: GDP-bound KRAS wild-type protein, read-out: KRAS KD
Sequence of GDP-bound KRAS wild-type protein (P01116 whole entry): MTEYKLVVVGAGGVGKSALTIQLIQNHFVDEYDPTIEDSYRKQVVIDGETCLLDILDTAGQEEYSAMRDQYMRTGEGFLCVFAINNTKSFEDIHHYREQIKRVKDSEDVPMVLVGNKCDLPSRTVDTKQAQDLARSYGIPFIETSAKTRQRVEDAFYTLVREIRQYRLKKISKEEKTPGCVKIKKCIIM

[3] = target: GDP-bound NRAS wild-type protein (Homo sapiens, UniProt P01111); assay: Binding to NRAS by surface plasmon resonance (SPR), Single Cycle Kinetics; settings: SPR, GDP-bound NRAS wild-type protein vs GDP-bound KRAS wild-type protein
Sequence of GDP-bound NRAS wild-type protein (P01111 whole entry): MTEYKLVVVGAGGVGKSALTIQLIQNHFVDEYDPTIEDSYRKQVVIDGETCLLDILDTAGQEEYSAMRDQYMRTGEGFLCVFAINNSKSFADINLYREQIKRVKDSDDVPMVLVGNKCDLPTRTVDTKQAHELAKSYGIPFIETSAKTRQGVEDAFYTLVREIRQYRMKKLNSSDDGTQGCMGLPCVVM

[4] = SPR Single Cycle Kinetics, 1:1 binding model

Row | Compound | HRAS/KRAS (ratio of KD value for HRAS to KD value for KRAS) [1] | Kd [2, 4] | NRAS/KRAS (ratio of KD value for NRAS to KD value for KRAS) [3] | Kd ([2]; SPR, Single Cycle Kinetics) | HRAS/KRAS (ratio of KD value with respect to HRAS to KD value with respect to KRAS) [1] | NRAS/KRAS (ratio of KD value with respect to NRAS to KD value with respect to KRAS) [3]
1 | CCCN1C(=O)CN(C)C(=O)CN(C)C(=O)[C@H]([C@@H](C)CC)NC(=O)[C@H](CC(C)C)N(C)C(=O)C[C@@H](C(=O)N2CCOCC2)N(C)C(=O)[C@H](C2CCCC2)N(C)C(=O)C2(CCCC2)NC(=O)[C@@H]2C[C@@H](O)CN2C(=O)[C@H](CCc2ccc(C(F)(F)F)c(Cl)c2)NC(=O)CN(C)C(=O)[C@@H]1Cc1ccc(C(F)(F)F)cc1 [PP0241] ([NMeL]I[Sar][Sar][NPrPhe(4-CF3)][Sar][hPhe(3-Cl-4-CF3)][Hyp][Ac5c][NMeGly(cPent)][NMeD]-Morpholide; lactam N-11) | C (A compound having a KD ratio of 0.1 or more and less than 3 is denoted as C) | 0.052 nM | B (a compound having 3 or more and less than 10 is denoted as B) | – | – | –
2 | CC[C@H](C)[C@@H]1NC(=O)[C@H](CC)N(C)C(=O)C[C@@H](C(=O)N(C)C)N(C)C(=O)[C@H](C2CCCC2)N(C)C(=O)C2(CCC2)NC(=O)[C@@H]2C[C@H](OC)CN2C(=O)[C@H](CCc2cc(F)c(C(F)(F)F)c(F)c2)NC(=O)CN(C)C(=O)[C@H](Cc2ccc(C(F)(F)F)cc2)N2CC/C=C\C[C@@H](C2=O)N(C)C(=O)CN(C)C1=O [PP1128, (2S,8S,12S,14S,20S,23S,27S,30S,36S,38Z)-20-cyclopentyl-8-[2-[3,5-difluoro-4-(trifluoromethyl)phenyl]ethyl]-27-ethyl-12-methoxy-N,N,4,19,22,26,32,35-octamethyl-30-[(1S)-1-methylpropyl]-3,6,9,15,18,21,25,28,31,34,42-undecaoxo-2-[[4-(trifluoromethyl)phenyl]methyl]spiro[1,4,7,10,16,19,22,26,29,32,35-undecazatricyclo[34.5.1.0^10,14]dotetracont-38-ene-17,1′-cyclobutane]-23-carboxamide] | A (a compound having 10 or more and less than 20 is denoted as A) | – | AA (a compound having 20 or more is denoted as AA) | 0.12 nM | – | –
3 | CC[C@H](C)[C@@H]1NC(=O)[C@H](CC(C)C)N(C)C(=O)C[C@@H](C(=O)N2CCOCC2)N(C)C(=O)[C@H](C2CCCC2)NC(=O)C2(CCCC2)NC(=O)[C@@H]2CCCN2C(=O)[C@H](CCc2cc(F)c(C(F)(F)F)c(F)c2)NC(=O)CN(C)C(=O)[C@H](Cc2ccc(C(F)(F)F)cc2)N2CCCC[C@@H](C2=O)N(C)C(=O)CN(C)C1=O [PP0540] | – | 17 nM | – | – | B (a compound having 3 or more and less than 10 is denoted as B) | B (a compound having 3 or more and less than 10 is denoted as B)
4 | CC[C@H](C)[C@@H]1NC(=O)[C@H](CC(C)C)N(C)C(=O)C[C@@H](C(=O)N2CCOCC2)N(C)C(=O)[C@H](C2CCCC2)N(C)C(=O)C2(CCC2)NC(=O)[C@@H]2[C@@H](OC)CCN2C(=O)[C@H](CCc2cc(F)c(C(F)(F)F)c(F)c2)NC(=O)CN(C)C(=O)[C@H](Cc2ccc(C(F)(F)F)cc2)N2CCCCC[C@@H](C2=O)N(C)C(=O)CN(C)C1=O [PP1067] | B (a compound having 3 or more and less than 10 is denoted as B) | – | B (a compound having 3 or more and less than 10 is denoted as B) | 2.9 nM | – | –
5 | CCCN1C(=O)CN(C)C(=O)CN(C)C(=O)[C@H]([C@@H](C)CC)NC(=O)[C@H](CC(C)C)N(C)C(=O)C[C@@H](C(=O)N2CCOCC2)N(C)C(=O)[C@H](C2CCCC2)N(C)C(=O)C2(CCCC2)NC(=O)[C@@H]2CCCN2C(=O)[C@H](CCc2ccc(C(F)(F)F)c(Cl)c2)NC(=O)CN(C)C(=O)[C@@H]1Cc1ccc(C)cc1 [PP0059] ([NMeL]I[Sar][Sar][NPrPhe(4-Me)][Sar][hPhe(3-Cl-4-CF3)]P[Ac5c][NMeGly(cPent)][NMeD]-Morpholide; lactam N-11) | C (A compound having a KD ratio of 0.1 or more and less than 3 is denoted as C) | 0.15 nM | B (a compound having 3 or more and less than 10 is denoted as B) | – | – | –
6 | CCCN1C(=O)[C@@H]2CCN2C(=O)CN(C)C(=O)[C@H]([C@@H](C)CC)NC(=O)[C@H](CC(C)C)N(C)C(=O)C[C@@H](C(=O)N2CCOCC2)N(C)C(=O)[C@H](C2CCCC2)N(C)C(=O)[C@](C)(COC(C)(C)C)NC(=O)[C@@H]2CCCN2C(=O)[C@H](CCc2cc(F)c(C(F)(F)F)c(F)c2)NC(=O)CN(C)C(=O)[C@@H]1Cc1ccc(C(F)(F)F)cc1 [PP0800] ([NMeL]I[Sar][Aze][NPrPhe(4-CF3)][Sar][hPhe(3,5-F2-4-CF3)]P[αMeS](tBu)[NMeGly(cPent)][NMeD]-Morpholide; lactam N-11) | – | 2.7 nM | – | – | B (a compound having 3 or more and less than 10 is denoted as B) | C (A compound having a KD ratio of 0.1 or more and less than 3 is denoted as C)
7 | CCC[C@H]1C(=O)N[C@@H]([C@@H](C)CC)C(=O)N(C)CC(=O)N(C)[C@H]2C/C=C\CCN(C2=O)[C@@H](Cc2ccc(C)cc2)C(=O)N(C)CC(=O)N[C@@H](CCc2ccc(Cl)c(Cl)c2)C(=O)N2C[C@H](OCC)C[C@H]2C(=O)NC2(CC(C)(C)C2)C(=O)N(C)[C@@H](C(CC)CC)C(=O)N(C)[C@H](C(=O)N(C)C)CC(=O)N1C [PP2184] | A (a compound having 10 or more and less than 20 is denoted as A) | – | AA (a compound having 20 or more is denoted as AA) | 0.7 nM | – | –
8 | CCO[C@@H]1C[C@H]2C(=O)NC3(CCC3)C(=O)N(C)[C@@H](C3CCCC3)C(=O)N(C)[C@H](C(=O)N3CCOCC3)CC(=O)N(C)[C@@H](CC)C(=O)N[C@@H]([C@@H](C)CC)C(=O)N(C)CC(=O)N(C)[C@H]3CC(C)=CCN(C3=O)[C@@H](Cc3ccc(C(F)(F)F)cc3)C(=O)N(C)CC(=O)N[C@@H](CCc3cc(F)c(C(F)(F)F)c(F)c3)C(=O)N2C1 [PP1041] | C (A compound having a KD ratio of 0.1 or more and less than 3 is denoted as C) | – | C (A compound having a KD ratio of 0.1 or more and less than 3 is denoted as C) | 0.57 nM | – | –
9 | CCCN1C(=O)[C@@H]2CCN2C(=O)[C@H](C)N(C)C(=O)[C@H]([C@@H](C)CC)NC(=O)[C@H](CC(C)C)N(C)C(=O)C[C@@H](C(=O)N2CCOCC2)N(C)C(=O)[C@H](C2CCCC2)N(C)C(=O)C2(CCCC2)NC(=O)[C@@H]2CC(C)(C)CN2C(=O)[C@H](CCc2ccc(C(F)(F)F)c(Cl)c2)NC(=O)CN(C)C(=O)[C@@H]1Cc1ccc(C(F)(F)F)cc1 [PP0454] ([NMeL]I[NMeA][Aze][NPrPhe(4-CF3)][Sar][hPhe(3-Cl-4-CF3)][Pro(4,4-Me2)][Ac5c][NMeGly(cPent)][NMeD]-Morpholide; lactam N-11) | – | 0.073 nM | – | – | C (A compound having a KD ratio of 0.1 or more and less than 3 is denoted as C) | C (A compound having a KD ratio of 0.1 or more and less than 3 is denoted as C)
10 | C#CC[C@H]1C(=O)N[C@@H]([C@@H](C)CC)C(=O)N(C)CC(=O)N(C)[C@H]2C/C=C\CCN(C2=O)[C@@H](Cc2ccc(C(F)(F)F)cc2)C(=O)N(C)CC(=O)N[C@@H](CCc2cc(F)c(C(F)(F)F)c(F)c2)C(=O)N2C[C@H](OCC)C[C@H]2C(=O)NC2(CCC2)C(=O)N(C)[C@@H](C2CCCC2)C(=O)N(C)[C@H](C(=O)N(C)C)CC(=O)N1C [PP1115, (2S,8S,12R,14S,20S,23S,27S,30S,36S,38Z)-20-cyclopentyl-8-[2-[3,5-difluoro-4-(trifluoromethyl)phenyl]ethyl]-12-ethoxy-N,N,4,19,22,26,32,35-octamethyl-30-[(1S)-1-methylpropyl]-3,6,9,15,18,21,25,28,31,34,42-undecaoxo-27-prop-2-ynyl-2-[[4-(trifluoromethyl)phenyl]methyl]spiro[1,4,7,10,16,19,22,26,29,32,35-undecazatricyclo[34.5.1.0^10,14]dotetracont-38-ene-17,1′-cyclobutane]-23-carboxamide] | A (a compound having 10 or more and less than 20 is denoted as A) | – | A (a compound having 10 or more and less than 20 is denoted as A) | 0.054 nM | – | –
11 | C#CC[C@H]1C(=O)N[C@@H]([C@@H](C)CC)C(=O)N(C)CC(=O)N(C)[C@H]2C/C=C\CCN(C2=O)[C@@H](Cc2ccc(C(F)(F)F)cc2)C(=O)N(C)CC(=O)N[C@@H](CCc2cc(F)c(C(F)(F)F)c(F)c2)C(=O)N2C[C@@H](C)C[C@H]2C(=O)NC2(CC(C)(C)C2)C(=O)N(C)[C@@H](C2CCCC2)C(=O)N(C)[C@H](C(=O)N(C)CCC)CC(=O)N1C [PP2076] | A (a compound having 10 or more and less than 20 is denoted as A) | – | A (a compound having 10 or more and less than 20 is denoted as A) | 0.39 nM | – | –
12 | CC[C@H](C)[C@@H]1NC(=O)[C@H](C)N(C)C(=O)C[C@@H](C(=O)N(C)C)N(C)C(=O)[C@H](C2CCCC2)N(C)C(=O)C2(CCC2)NC(=O)[C@@H]2CC(F)(F)CN2C(=O)[C@H](CCc2cc(F)c(C(F)(F)F)c(F)c2)NC(=O)CN(C)C(=O)[C@H](Cc2ccc(C(F)(F)F)cc2)N2CCCCC[C@@H](C2=O)N(C)C(=O)CN(C)C1=O [PP0473] | – | 0.56 nM | – | – | C (A compound having a KD ratio of 0.1 or more and less than 3 is denoted as C) | C (A compound having a KD ratio of 0.1 or more and less than 3 is denoted as C)

— patent publication US20240158446A1, “CYCLIC COMPOUND HAVING SELECTIVE INHIBITORY ACTION ON KRAS OVER HRAS AND NRAS” (CHUGAI SEIYAKU KABUSHIKI KAISHA, priority 2021, published 2024)
